Experimental data: article PMC7156458, “Synthetic biology based construction of biological activity-related library of fungal decalin-containing diterpenoid pyrones” (Nature Communications, 2020)

Molecular target: Aβ42 (Homo sapiens, UniProt P05067)
Experiment: Th-T (thioflavin-T) assay of Aβ42 aggregation
Format: biochemical
Conditions: for Th-T assay plate reading, mean of three wells (Supplementary Fig. 47): source data, Ab alone and No Ab as controls

Chain of Aβ42 (P05067 672-713): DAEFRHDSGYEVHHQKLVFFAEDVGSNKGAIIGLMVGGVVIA

`C=C1CC[C@H]2[C@]3(C)C[C@@H](C=C(C)C)O[C@H]3CC[C@]2(C)[C@@H]1Cc1c(OC)oc(CO)c(C)c1=O` [Compound 17] was tested, and the “Th-T fluorescence, mean of three wells” value (Aβ42 aggregation time course, reading M117) was 3.6742, the “Th-T fluorescence, mean of three wells” value (Aβ42 aggregation time course, reading M118) was 3.663 and the “Th-T fluorescence, mean of three wells” value (Aβ42 aggregation time course, reading M119) was 3.652. The “Th-T fluorescence, mean of three wells” value (Aβ42 aggregation time course, reading M120) was 3.6432, the “Th-T fluorescence, mean of three wells” value (Aβ42 aggregation time course, reading M121) was 3.639 and the “Th-T fluorescence, mean of three wells” value (Aβ42 aggregation time course, reading M122) was 3.631. For the same compound, the “Th-T fluorescence, mean of three wells” value (Aβ42 aggregation time course, reading M123) was 3.625, the “Th-T fluorescence, mean of three wells” value (Aβ42 aggregation time course, reading M124) was 3.645 and the “Th-T fluorescence, mean of three wells” value (Aβ42 aggregation time course, reading M125) was 3.636. The “Th-T fluorescence, mean of three wells” value (Aβ42 aggregation time course, reading M126) was 3.626, the “Th-T fluorescence, mean of three wells” value (Aβ42 aggregation time course, reading M127) was 3.63 and the “Th-T fluorescence, mean of three wells” value (Aβ42 aggregation time course, reading M128) was 3.617. For the same compound, the “Th-T fluorescence, mean of three wells” value (Aβ42 aggregation time course, reading M129) was 3.6361, the “Th-T fluorescence, mean of three wells” value (Aβ42 aggregation time course, reading M130) was 3.633 and the “Th-T fluorescence, mean of three wells” value (Aβ42 aggregation time course, reading M131) was 3.621. For the same compound, the “Th-T fluorescence, mean of three wells” value (Aβ42 aggregation time course, reading M132) was 3.621, the “Th-T fluorescence, mean of three wells” value (Aβ42 aggregation time course, reading M133) was 3.612 and the “Th-T fluorescence, mean of three wells” value (Aβ42 aggregation time course, reading M134) was 3.622. The “Th-T fluorescence, mean of three wells” value (Aβ42 aggregation time course, reading M135) was 3.594, the “Th-T fluorescence, mean of three wells” value (Aβ42 aggregation time course, reading M136) was 3.604 and the “Th-T fluorescence, mean of three wells” value (Supplementary Fig. 47, reading M137) was 3.585. For the same compound, the “Th-T fluorescence, mean of three wells” value (Supplementary Fig. 47, reading M138) was 3.583, the “Th-T fluorescence, mean of three wells” value (Supplementary Fig. 47, reading M139) was 3.585 and the “Th-T fluorescence, mean of three wells” value (Supplementary Fig. 47, reading M140) was 3.575. For the same compound, the “Th-T fluorescence, mean of three wells” value (Supplementary Fig. 47, reading M141) was 3.571, the “Th-T fluorescence, mean of three wells” value (Supplementary Fig. 47, reading M142) was 3.57 and the “Th-T fluorescence, mean of three wells” value (Supplementary Fig. 47, reading M143) was 3.569. The “Th-T fluorescence, mean of three wells” value (Supplementary Fig. 47, reading M144) was 3.562, the “Th-T fluorescence, mean of three wells” value (Supplementary Fig. 47, reading M145) was 3.551 and the “Th-T fluorescence, mean of three wells” value (Supplementary Fig. 47 source data, measurement M37 of time course) was 3.249. For the same compound, the “Th-T fluorescence, mean of three wells” value (Supplementary Fig. 47 source data, measurement M38 of time course) was 3.349, the “Th-T fluorescence, mean of three wells” value (Supplementary Fig. 47 source data, measurement M39 of time course) was 3.376 and the “Th-T fluorescence, mean of three wells” value (Supplementary Fig. 47 source data, measurement M40 of time course) was 3.376. The “Th-T fluorescence, mean of three wells” value (Supplementary Fig. 47 source data, measurement M41 of time course) was 3.367, the “Th-T fluorescence, mean of three wells” value (Supplementary Fig. 47 source data, measurement M42 of time course) was 3.371 and the “Th-T fluorescence, mean of three wells” value (Supplementary Fig. 47 source data, measurement M43 of time course) was 3.406. For the same compound, the “Th-T fluorescence, mean of three wells” value (Supplementary Fig. 47 source data, measurement M44 of time course) was 3.418, the “Th-T fluorescence, mean of three wells” value (Supplementary Fig. 47 source data, measurement M45 of time course) was 3.459 and the “Th-T fluorescence, mean of three wells” value (Supplementary Fig. 47 source data, measurement M46 of time course) was 3.456. The “Th-T fluorescence, mean of three wells” value (Supplementary Fig. 47 source data, measurement M47 of time course) was 3.465, the “Th-T fluorescence, mean of three wells” value (Supplementary Fig. 47 source data, measurement M48 of time course) was 3.489 and the “Th-T fluorescence, mean of three wells” value (Supplementary Fig. 47 source data, measurement M49 of time course) was 3.497. For the same compound, the “Th-T fluorescence, mean of three wells” value (Supplementary Fig. 47 source data, measurement M50 of time course) was 3.516, the “Th-T fluorescence, mean of three wells” value (Supplementary Fig. 47 source data, measurement M51 of time course) was 3.557 and the “Th-T fluorescence, mean of three wells” value (Supplementary Fig. 47 source data, measurement M52 of time course) was 3.55. The “Th-T fluorescence, mean of three wells” value (Supplementary Fig. 47 source data, measurement M53 of time course) was 3.554, the “Th-T fluorescence, mean of three wells” value (Supplementary Fig. 47 source data, measurement M54 of time course) was 3.5687 and the “Th-T fluorescence, mean of three wells” value (Supplementary Fig. 47 source data, measurement M55 of time course) was 3.6. For the same compound, the “Th-T fluorescence, mean of three wells” value (Supplementary Fig. 47 source data, measurement M56 of time course) was 3.63, the “Th-T assay plate reading, mean of three wells (Supplementary Fig. 47)” value (from here on “Th-T assay plate reading, mean”) (measurement M1) was 0.2517 and the “Th-T assay plate reading, mean” value (measurement M2) was 0.2528. For the same compound, the “Th-T assay plate reading, mean” value (measurement M3) was 0.2961, the “Th-T assay plate reading, mean” value (measurement M4) was 0.352 and the “Th-T assay plate reading, mean” value (measurement M5) was 0.4245. The “Th-T assay plate reading, mean” value (measurement M6) was 0.4941, the “Th-T assay plate reading, mean” value (measurement M7) was 0.5517 and the “Th-T assay plate reading, mean” value (measurement M8) was 0.6173. The “Th-T assay plate reading, mean” value (measurement M9) was 0.6978, the “Th-T assay plate reading, mean” value (measurement M10) was 0.9149 and the “Th-T assay plate reading, mean” value (measurement M11) was 1.381. For the same compound, the “Th-T assay plate reading, mean” value (measurement M12) was 1.864, the “Th-T assay plate reading, mean” value (measurement M13) was 2.227 and the “Th-T assay plate reading, mean” value (measurement M14) was 2.461. For the same compound, the “Th-T assay plate reading, mean” value (measurement M15) was 2.575, the “Th-T assay plate reading, mean” value (measurement M16) was 2.619 and the “Th-T fluorescence, mean of three wells” value (reading M17, Supplementary Fig. 47 source data) was 2.658. The “Th-T fluorescence, mean of three wells” value (reading M18, Supplementary Fig. 47 source data) was 2.682, the “Th-T fluorescence, mean of three wells” value (reading M19, Supplementary Fig. 47 source data) was 2.683 and the “Th-T fluorescence, mean of three wells” value (reading M20, Supplementary Fig. 47 source data) was 2.726. For the same compound, the “Th-T fluorescence, mean of three wells” value (reading M21, Supplementary Fig. 47 source data) was 2.74, the “Th-T fluorescence, mean of three wells” value (reading M22, Supplementary Fig. 47 source data) was 2.776 and the “Th-T fluorescence, mean of three wells” value (reading M23, Supplementary Fig. 47 source data) was 2.7833. For the same compound, the “Th-T fluorescence, mean of three wells” value (reading M24, Supplementary Fig. 47 source data) was 2.808, the “Th-T fluorescence, mean of three wells” value (reading M25, Supplementary Fig. 47 source data) was 2.851 and the “Th-T fluorescence, mean of three wells” value (reading M26, Supplementary Fig. 47 source data) was 2.893. For the same compound, the “Th-T fluorescence, mean of three wells” value (reading M27, Supplementary Fig. 47 source data) was 2.879, the “Th-T fluorescence, mean of three wells” value (reading M28, Supplementary Fig. 47 source data) was 2.908 and the “Th-T fluorescence, mean of three wells” value (reading M29, Supplementary Fig. 47 source data) was 2.914. For the same compound, the “Th-T fluorescence, mean of three wells” value (reading M30, Supplementary Fig. 47 source data) was 2.944, the “Th-T fluorescence, mean of three wells” value (reading M31, Supplementary Fig. 47 source data) was 2.96 and the “Th-T fluorescence, mean of three wells” value (reading M32, Supplementary Fig. 47 source data) was 3.025. For the same compound, the “Th-T fluorescence, mean of three wells” value (reading M33, Supplementary Fig. 47 source data) was 3.031, the “Th-T fluorescence, mean of three wells” value (reading M34, Supplementary Fig. 47 source data) was 3.078 and the “Th-T fluorescence, mean of three wells” value (reading M35, Supplementary Fig. 47 source data) was 3.103. The “Th-T fluorescence, mean of three wells” value (reading M36, Supplementary Fig. 47 source data) was 3.12, the “Th-T fluorescence, mean of three wells” value (time course, reading M57) was 3.617 and the “Th-T fluorescence, mean of three wells” value (time course, reading M58) was 3.628. For the same compound, the “Th-T fluorescence, mean of three wells” value (time course, reading M59) was 3.637, the “Th-T fluorescence, mean of three wells” value (time course, reading M60) was 3.637 and the “Th-T fluorescence, mean of three wells” value (time course, reading M61) was 3.653. The “Th-T fluorescence, mean of three wells” value (time course, reading M62) was 3.653, the “Th-T fluorescence, mean of three wells” value (time course, reading M63) was 3.655 and the “Th-T fluorescence, mean of three wells” value (time course, reading M64) was 3.667. The “Th-T fluorescence, mean of three wells” value (time course, reading M65) was 3.662, the “Th-T fluorescence, mean of three wells” value (time course, reading M66) was 3.684 and the “Th-T fluorescence, mean of three wells” value (time course, reading M67) was 3.7096. For the same compound, the “Th-T fluorescence, mean of three wells” value (time-course reading M97, Supplementary Fig. 47 source data) was 3.715, the “Th-T fluorescence, mean of three wells” value (time-course reading M98, Supplementary Fig. 47 source data) was 3.727 and the “Th-T fluorescence, mean of three wells” value (time-course reading M99, Supplementary Fig. 47 source data) was 3.7169. The “Th-T fluorescence, mean of three wells” value (time-course reading M100, Supplementary Fig. 47 source data) was 3.715, the “Th-T fluorescence, mean of three wells” value (time-course reading M101, Supplementary Fig. 47 source data) was 3.715 and the “Th-T fluorescence, mean of three wells” value (time-course reading M102, Supplementary Fig. 47 source data) was 3.7. The “Th-T fluorescence, mean of three wells” value (time-course reading M103, Supplementary Fig. 47 source data) was 3.686, the “Th-T fluorescence, mean of three wells” value (time-course reading M104, Supplementary Fig. 47 source data) was 3.695 and the “Th-T fluorescence, mean of three wells” value (time-course reading M105, Supplementary Fig. 47 source data) was 3.722. The “Th-T fluorescence, mean of three wells” value (time-course reading M106, Supplementary Fig. 47 source data) was 3.704, the “Th-T fluorescence, mean of three wells” value (time-course reading M107, Supplementary Fig. 47 source data) was 3.71 and the “Th-T fluorescence, mean of three wells” value (time-course reading M108, Supplementary Fig. 47 source data) was 3.718. For the same compound, the “Th-T fluorescence, mean of three wells” value (time-course reading M109, Supplementary Fig. 47 source data) was 3.713, the “Th-T fluorescence, mean of three wells” value (time-course reading M110, Supplementary Fig. 47 source data) was 3.7 and the “Th-T fluorescence, mean of three wells” value (time-course reading M111, Supplementary Fig. 47 source data) was 3.699. The “Th-T fluorescence, mean of three wells” value (time-course reading M112, Supplementary Fig. 47 source data) was 3.698, the “Th-T fluorescence, mean of three wells” value (time-course reading M113, Supplementary Fig. 47 source data) was 3.697 and the “Th-T fluorescence, mean of three wells” value (time-course reading M114, Supplementary Fig. 47 source data) was 3.674. The “Th-T fluorescence, mean of three wells” value (time-course reading M115, Supplementary Fig. 47 source data) was 3.682 and the “Th-T fluorescence, mean of three wells” value (time-course reading M116, Supplementary Fig. 47 source data) was 3.669.
